Key:
Test in all cases: Cysteine liganding, probe competition
Assay type in all cases: binding
[1] = molecular target: T1, MAPK10 Mitogen-activated protein kinase 10 (Homo sapiens, UniProt P53779); settings: for 100 Max / 100 ave / 500 ave / 500 Max: uniprot P53779; for 500 Max: in % (unit assumed)
T1 construct: Cells were resuspended in cold PBS on ice and sonicated with a probe sonicator to achieve lysis; endogenous in cells
Method in brief: (§1)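 Lysates from probe-sonicated cells in PBS (5 mg/ml proteome) were exposed to compound for 1 hr at 25° C, then labelled with desthiobiotin iodoacetamide probe (10 mM stock) for 1 hr at 25° C. Probe-tagged peptides were streptavidin-enriched after trypsin digestion.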

[2] = molecular target: T2, HADHB Trifunctional enzyme subunit beta, mitochondrial (Homo sapiens, UniProt P55084)
T2 construct: Cells were resuspended in cold PBS on ice and sonicated with a probe sonicator to achieve lysis; endogenous in cells
Method in brief: as §1

[3] = molecular target: T3, POGZ Pogo transposable element with ZNF domain (Homo sapiens, UniProt Q7Z3K3)
T3 construct: Cells were resuspended in cold PBS on ice and sonicated with a probe sonicator to achieve lysis; endogenous in cells
T3 sequence (Q7Z3K3 1-1410): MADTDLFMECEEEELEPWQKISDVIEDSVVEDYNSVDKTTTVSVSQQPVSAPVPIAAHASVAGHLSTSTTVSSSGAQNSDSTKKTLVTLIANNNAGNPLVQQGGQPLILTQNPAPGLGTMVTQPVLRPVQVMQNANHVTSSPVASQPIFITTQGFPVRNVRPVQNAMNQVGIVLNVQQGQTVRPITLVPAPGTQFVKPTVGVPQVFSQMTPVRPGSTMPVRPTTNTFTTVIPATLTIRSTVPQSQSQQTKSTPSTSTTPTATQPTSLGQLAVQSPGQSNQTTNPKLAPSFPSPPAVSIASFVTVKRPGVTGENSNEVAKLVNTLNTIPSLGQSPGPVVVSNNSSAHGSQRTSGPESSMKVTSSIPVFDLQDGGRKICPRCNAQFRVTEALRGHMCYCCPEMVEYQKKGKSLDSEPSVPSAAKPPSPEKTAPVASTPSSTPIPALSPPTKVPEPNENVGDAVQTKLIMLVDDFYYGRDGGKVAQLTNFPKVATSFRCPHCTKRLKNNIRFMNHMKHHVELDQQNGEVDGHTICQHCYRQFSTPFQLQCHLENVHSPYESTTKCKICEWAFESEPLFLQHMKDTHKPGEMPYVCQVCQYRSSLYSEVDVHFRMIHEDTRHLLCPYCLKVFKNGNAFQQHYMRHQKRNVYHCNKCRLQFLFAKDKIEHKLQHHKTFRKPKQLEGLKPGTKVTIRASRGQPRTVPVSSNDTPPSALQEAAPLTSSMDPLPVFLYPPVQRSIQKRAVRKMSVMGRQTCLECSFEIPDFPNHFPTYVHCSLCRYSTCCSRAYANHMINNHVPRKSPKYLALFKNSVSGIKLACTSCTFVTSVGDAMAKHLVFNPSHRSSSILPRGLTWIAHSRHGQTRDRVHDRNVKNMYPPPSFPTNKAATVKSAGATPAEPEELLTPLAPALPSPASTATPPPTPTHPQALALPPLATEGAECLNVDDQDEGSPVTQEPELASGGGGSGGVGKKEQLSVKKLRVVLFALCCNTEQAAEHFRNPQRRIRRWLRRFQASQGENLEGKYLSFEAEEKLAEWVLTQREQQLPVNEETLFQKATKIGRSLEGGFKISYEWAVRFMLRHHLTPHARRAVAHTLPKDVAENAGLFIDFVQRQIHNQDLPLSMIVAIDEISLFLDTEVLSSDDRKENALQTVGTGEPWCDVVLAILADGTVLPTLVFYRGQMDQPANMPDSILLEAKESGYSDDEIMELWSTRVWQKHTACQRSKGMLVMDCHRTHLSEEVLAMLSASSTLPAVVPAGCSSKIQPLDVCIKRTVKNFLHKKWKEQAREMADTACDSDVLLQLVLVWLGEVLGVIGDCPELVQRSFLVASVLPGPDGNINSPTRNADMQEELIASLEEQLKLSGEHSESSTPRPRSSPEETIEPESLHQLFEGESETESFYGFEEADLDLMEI
Method in brief: as §1

T2 sequence (P55084 34-474): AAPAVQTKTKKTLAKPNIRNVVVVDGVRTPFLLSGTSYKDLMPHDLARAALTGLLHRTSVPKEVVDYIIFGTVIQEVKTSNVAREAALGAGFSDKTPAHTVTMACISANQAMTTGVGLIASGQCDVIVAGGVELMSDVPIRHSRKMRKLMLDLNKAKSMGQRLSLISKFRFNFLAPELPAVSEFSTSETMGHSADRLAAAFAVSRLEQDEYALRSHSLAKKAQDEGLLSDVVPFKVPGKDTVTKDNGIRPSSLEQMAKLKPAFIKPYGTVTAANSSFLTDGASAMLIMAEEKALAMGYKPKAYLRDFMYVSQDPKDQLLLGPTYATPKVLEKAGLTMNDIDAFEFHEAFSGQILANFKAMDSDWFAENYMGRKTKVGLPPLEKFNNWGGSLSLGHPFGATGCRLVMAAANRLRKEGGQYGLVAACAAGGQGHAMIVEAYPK
T2 sequence (P40939 37-763 partner): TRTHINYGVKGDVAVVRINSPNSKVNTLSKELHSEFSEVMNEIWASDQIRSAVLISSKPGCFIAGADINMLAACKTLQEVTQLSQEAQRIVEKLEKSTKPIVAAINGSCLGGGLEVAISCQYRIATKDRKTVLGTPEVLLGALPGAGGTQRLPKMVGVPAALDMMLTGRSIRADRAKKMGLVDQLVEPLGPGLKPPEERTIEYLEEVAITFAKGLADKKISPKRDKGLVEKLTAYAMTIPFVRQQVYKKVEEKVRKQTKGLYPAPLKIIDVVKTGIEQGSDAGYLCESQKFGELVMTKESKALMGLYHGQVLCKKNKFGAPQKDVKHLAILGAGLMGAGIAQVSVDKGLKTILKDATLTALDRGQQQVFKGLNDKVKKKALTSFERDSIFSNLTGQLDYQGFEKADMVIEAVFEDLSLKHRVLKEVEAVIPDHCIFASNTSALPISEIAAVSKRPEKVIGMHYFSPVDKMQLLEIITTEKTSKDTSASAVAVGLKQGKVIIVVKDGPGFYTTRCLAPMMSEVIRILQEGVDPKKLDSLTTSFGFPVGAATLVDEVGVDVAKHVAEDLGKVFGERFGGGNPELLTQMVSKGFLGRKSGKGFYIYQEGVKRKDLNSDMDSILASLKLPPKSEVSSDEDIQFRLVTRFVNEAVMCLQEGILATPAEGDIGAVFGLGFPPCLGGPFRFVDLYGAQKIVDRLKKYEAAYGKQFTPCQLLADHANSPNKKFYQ
T1 sequence (P53779 whole entry): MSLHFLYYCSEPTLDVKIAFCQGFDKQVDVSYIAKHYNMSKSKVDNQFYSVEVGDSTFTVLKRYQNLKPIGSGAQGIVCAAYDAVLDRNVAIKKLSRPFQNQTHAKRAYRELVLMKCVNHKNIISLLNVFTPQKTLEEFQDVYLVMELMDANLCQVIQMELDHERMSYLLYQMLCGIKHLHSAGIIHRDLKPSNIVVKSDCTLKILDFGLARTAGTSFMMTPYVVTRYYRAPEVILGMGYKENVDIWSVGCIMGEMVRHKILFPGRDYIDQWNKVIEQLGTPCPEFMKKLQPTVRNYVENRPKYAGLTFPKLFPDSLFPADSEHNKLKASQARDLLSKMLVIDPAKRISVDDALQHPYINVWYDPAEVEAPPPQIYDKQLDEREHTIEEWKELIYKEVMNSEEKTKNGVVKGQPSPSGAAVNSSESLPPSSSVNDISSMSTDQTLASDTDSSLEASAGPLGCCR

For COc1ccc2c(c1)CCCN2C(=O)CCl [KB02], the Liganded ([1]; MAPK10 Res# 283, uniprot P53779) was “YES”, the “100 Max” value [1] was 44.42 and the 100 ave [1] was 26.11. The 500 ave [1] was 76.89, the “500 Max” value [1] was 78.63 and the Liganded ([2]; HADHB Res# 458, uniprot P55084) was “YES”. For the same compound, the Liganded ([3]; POGZ Res# 547, uniprot Q7Z3K3) was “YES”.

For O=C(CCl)Nc1cc(C(F)(F)F)cc(C(F)(F)F)c1 [KBO3], the “100 Max” value [1] was 17.22, the 100 ave [1] was 12.33 and the 500 ave [1] was 40.875. For the same compound, the “500 Max” value [1] was 44.06, the “100 Max” value ([2]; uniprot P55084) was 26.24 and the 100 ave ([2]; uniprot P55084) was 15.245. For the same compound, the “500 Max” value ([2]; uniprot P55084) was 64.33, the 500 ave ([2]; uniprot P55084) was 60.9 and the “100 Max” value ([3]; uniprot Q7Z3K3) was 2.21. For the same compound, the 100 ave ([3]; uniprot Q7Z3K3) was −8.9575, the “500 Max” value ([3]; uniprot Q7Z3K3) was 15.64 and the 500 ave ([3]; uniprot Q7Z3K3) was 13.995.

Source: US20200239530A1, “COMPOUNDS AND METHODS OF MODULATING PROTEIN DEGRADATION” (Vividion Therapeutics, Inc., priority 2017, published 2020)
